Test results published in patent US9101566B2, “Fermentation product of cereal plant-derived material and immunomodulator” (KIRIN HOLDINGS KABUSHIKI KAISHA, priority 2009, dated 2015).

Experiments:
[1] = Solubility in solvent; assay type: physicochemical
[2] = test system: C57BL/6 mDCs co-cultured with BALB/c CD4+CD62L+ T cells; experiment: Cytokine profile of CD4+ T cells induced by DCs treated with 14-DHE, MLR (Example 11); assay type: cell-based, mouse; settings: 14-DHE 3 μM, day 4 supernatant, vs control mDC
Method: In a manner similar to that described in the above Examples, bone marrow cells were prepared from C57BL/6 mouse thigh bone, and then dendritic cells were induced using Flt-3L. 14-DHE was added at 3 μM simultaneously with the initiation of culture. Seven days later, Salmonella typhosa-derived LPS (Sigma Aldrich) was added at 5 ng/mL and then 24 hours later, cells were recovered. Subsequently, CD11c^+CD11b^+ was set as a gate for mDCs and then recovered cells were sorted. Next, from the BALB/c mouse spleen, CD4^+CD62L^+ T cells were isolated using the CD4^+CD62L^+ T cell isolation kit II (mouse) (Miltenyi Biotec), followed by mixed culture at a ratio of mDC:CD4^+T cell of 1:5. As a control, mDC prepared in the absence of 14-DHE was used. A culture supernatant on day 4 of culture was recovered, and then TNF-α, IFN-γ, IL-6, IL-10, and IL-17 were measured by ELISA. As ELISA kits, Mouse TNF-α Ready-SET-Go! (eBioscience), a BD OptEIA Mouse IFN-γ ELISA set (BD Life Science), Mouse IL-6 Ready-SET-Go! (eBioscience), a BD OptEIA Mouse IL-10 ELISA set (BD Life Science), and Mouse IL-17 DuoSet ELISA (R&D Systems) were separately used.

[3] = test system: DCs induced from C57BL/6 mouse bone marrow cells; experiment: Timing and duration of the DC-activation-suppressing effect of 14-DHE (Example 14); assay type: cell-based
Method: In a manner similar to those of the Examples above, C57BL/6 mouse bone marrow cells were prepared and then DCs were induced using Flt-3. The concentration of the added 14-DHE was 3 μM in all cases. The drug residence time in the culture system was controlled by medium exchange. Inflammation was induced using 5 ng/mL LPS, and then the expression level of CD86 was measured using a flow cytometer, so that the characteristics of regulatory DCs were determined. At this time, the cells that had been treated with LPS and without 14-DHE were used as control cells. The median fluorescence intensity (Median Fluorescence Intensity: MFI) of CD86 in the cells treated with 14-DHE was divided by MFI of untreated cells. The determined values indicate: 1 or more, no effect (score: −); 0.7-0.99, weak effect (score: +); 0.4-0.69, moderate effect (score: ++); and 0.4 or less, strong effect (score: +++).

[4] = test system: CD4+ T cells in regional lymph node cells and spleen cells of EAE mice; experiment: EAE model, day 11 autopsy: intracellular cytokine positive rate in CD4+ T cells; assay type: in vivo, mouse; settings: re-stimulation with 2 μM MOG
Method: On day 0, the 35-55 peptide (MOG35-55, Operon), a glycoprotein of myelin oligodendroglial cells, as an antigen was mixed with complete Freund's adjuvant (CFA, Difco) and then the mixture was subcutaneously administered at a dose of 200 μg/animal. Subsequently, pertussis toxin (Wako Pure Chemical Industries, Japan) was intraperitoneally administered at a dose of 200 ng/animal on day 1 and day 3, thereby inducing the onset of multiple sclerosis. During days 7 to 18, 14-DHE was intraperitoneally administered at a dose of 10 μg/animal once a day. To the vehicle group, the following solvent for 14-DHE was administered: 10% ethanol (Wako Pure Chemical Industries, Japan)/10% Cremophor (Wako Pure Chemical Industries, Japan)/80% PBS (Takara, Japan).
Mice were autopsied on day 11 (when inflammation was thought to take place in vivo) to obtain biochemical data.
(2) Spleen cells and regional lymph node (inguinal or axillary) cells were prepared and then cultured for 3 days with re-stimulation with 2 μM MOG. Golgi plug (1 μL/mL) (Becton, Dickinson and Company) was added and then further incubation was performed for 4.5 hours. Cells were recovered and then subjected to cell surface staining with CD4-PerCP and CD3-APC-Cy7. Next, cell membrane permeabilization treatment was performed using the Cytofix/CytoPerm kit (Becton, Dickinson and Company), intracellular cytokine staining was performed using antibodies to TNF-α-FITC, IL-17-PE, IL-10-APC, and IFN-γ-PE-Cy7, and then the positive rate of intracellular cytokines in CD4^+ T cells was measured using FACS.

[5] = test system: human DCs from peripheral blood CD14-positive cells; experiment: Human regulatory DC-inducing activity of 14-DHE (Example 16); assay type: cell-based; settings: 14-DHE 1, 3 or 10 μM; ergosterol 10 μM; LPS/IFN-γ or cytokine cocktail 24 h
Method: Mononuclear cells were prepared from human peripheral blood by density-gradient centrifugation using Ficoll-Paque (GE Healthcare, Japan). These cells were subjected to positive selection using anti-human CD14 MACS beads (Miltenyi Biotec), so that CD14-positive cells were obtained. CD14-positive cells were cultured in RPMI1640 media (containing 10% FBS (Invitrogen), 50 μmol/L 2-mercaptoethanol (Wako Pure Chemical Industries, Japan), 50 U/mL penicillin, and 50 μg/mL streptomycin (Gibco) (Sigma Aldrich)) supplemented with recombinant human GM-CSF (800 U/mL, Leukine, Berlex) and recombinant human IL-4 (100 ng/mL, Peprotech). During culture, medium exchange was performed once every 2 days. On day 7 of culture, 14-DHE was added at a concentration of 1 μM, 3 μM, or 10 μM. To a control, 10 μM ergosterol, which was a related substance, was added. Also, to a negative control, 1% ethanol, which was a solvent for 14-DHE, was added. The cells were recovered on day 8 of culture, counted, and then suspended at a density of 3×10^5 cells/mL in the above media. To cell suspensions, 1 μg/mL LPS and 100 ng/mL IFN-γ (both, Sigma Aldrich), or cytokine cocktail (1 μg/mL PGE2 (Sigma Aldrich), 10 ng/mL TNF-α, 2 μg/mL IL-6, and 10 ng/mL IL-1β (3 (all, BD Bioscience)) were added, followed by 24-hour culture. After culture, the cells were stained for CD86, HLA-DR, and CD80. Antibodies used were all produced by BD Bioscience. The gate of DCs was set by FSC and SSC, and the expression levels of these cell surface markers were analyzed.

With `CC(C)[C@@H](C)/C=C/[C@@H](C)[C@H]1CC=C2C3=CC=C4C[C@@H](O)CC[C@]4(C)[C@H]3CC[C@@]21C` [Sample 14-DHE, ergosta-5,7,14,22-tetraen-3β-ol] the “Solubility in solvent: chloroform” value ([1]; chloroform) was “readily soluble”, the “Solubility in solvent: ethanol” value ([1]; ethanol) was “hardly soluble” and the “Solubility in solvent: water” value ([1]; water) was “insoluble”. The “IFN-γ production (ELISA)” value [2] was “significant decreases”, the “IL-6 production (ELISA)” value [2] was “significant decreases” and the “IL-10 production (ELISA)” value [2] was “no statistically significant difference was observed”. The “IL-17 production (ELISA)” value [2] was “significant decreases”, the “TNF-α production (ELISA)” value [2] was “significant decreases” and the “duration of the effect” value ([3]; 14-DHE 3 μM) was 72 h. For the same compound, the “DC activation (CD86)-suppressing effect” value ([3]; 14-DHE 3 μM added for 5 or 6 days from initiation of differentiation) was “the degree of the effect significantly decreased”, the “DC activation (CD86)-suppressing effect” value ([3]; 14-DHE 3 μM added for 7 days starting from initiation of DC differentiation, LPS 5 ng/mL) was “strong effect” and the “DC activation (CD86)-suppressing effect” value ([3]; 14-DHE 3 μM addition begun on day 7 when DC differentiation was completed) was “strong effect”. The “DC activation (CD86)-suppressing effect” value ([3]; 14-DHE absent at the time of adding LPS) was “decrease in the effect was observed”, the “time within which the effect significantly decreased” value ([3]; addition begun on day 0 or on day 7) was at most 72 h and the “time required for 14-DHE to exhibit its effect” value ([3]; addition from initiation of DC differentiation) was at least 7 days. For the same compound, the “IFN-γ production by CD4+ T cells, lymph node cells” value [4] was “significantly decrease”, the “IFN-γ production by CD4+ T cells, spleen cells” value [4] was “significantly decrease” and the “IL-17 production by CD4+ T cells, spleen cells” value [4] was “significantly decrease”. The “TNF-α production by CD4+ T cells, lymph node cells” value [4] was “significantly decrease”, the “TNF-α production by CD4+ T cells, spleen cells” value [4] was “significantly decrease” and the “expression level of CD80 on human DCs” value [5] was “decreased”. For the same compound, the “expression level of CD86 on human DCs” value [5] was “decreased” and the “expression level of MHC class II molecule HLA-DR on human DCs” value [5] was “decreased”.
